{
  "source": "patent US20100323021A1",
  "about": "“ANTITUMORAL TREATMENTS” (PHARMA MAR, S.A., priority 2008, published 2010)",
  "key": {"[1]": {"tested_on": "non-small cell lung (A549)", "details": "cited from earlier work"}, "colon (HT-29)": {"tested_on": "colon (HT-29)", "details": "cited from earlier work"}, "mouse leukemia (P388)": {"tested_on": "mouse leukemia (P388)", "details": "cited from earlier work"}, "[2]": {"tested_on": "human cervical epithelium HeLa tumor cells", "test": "Antiproliferation assay (WST-1 cell viability)", "assay_type": "cell-based", "details": "24 h incubation, conjugates added at a peptide concentration of 1×10^−5 M", "protocol": "The degree of cytotoxic activity of single peptides (P1 and P2), single gold nanoparticle solutions (AuNP-20 and AuNP-40) and their respective conjugates was determined by cell viability testing using the WST-1 assay in human cervical epithelium HeLa tumor cells, following 24 h of incubation. Each assay was run in sextuplicate, and the whole experiment was run in triplicate.\nHeLa cell line (ATTC no CCL-2) was maintained in Dulbecco Modified Eagle's Minimal Essential Medium (DMEM) low glucose medium (Biological Industries) containing 10% foetal calf serum (FCS), 2 mM glutamine, 50 U/mL penicillin, and […] streptomycin at 37° C. in a controlled 5% CO2 atmosphere.\nFor cell viability experiments, exponentially growing HeLa cells were detached from the culture flasks using a trypsin-0.25% ethylenediaminetetraacetic acid (EDTA) solution and the cell suspension was seeded at a concentration of 3.5×10^3 cells/cm^2 onto glass coverslips (Nalge Nunc International, Rochester, N.Y.). WST 1 assays were carried out 24 h later, when the confluence was approximately 70-80%. Non-adherent cells were washed away and attached cells were incubated at 37° C. in 5% CO2 in DMEM with a known concentration of gold nanoparticles.\nFor each assay, 3.5×10^3 cells/cm^2 were seeded onto a 96-well plate (Nalge Nunc) and cultured for 24 h. […]"}, "[3]": {"tested_on": "human tumor cell types such as breast, prostate, and melanoma", "details": "xenografted murine models; cited from earlier work"}},
  "data": [
    {"smiles": "C/C=C1\\NC(=O)[C@H](Cc2ccccc2)NC(=O)[C@@H](C(C)C)NC(=O)[C@@H]([C@@H](C)CC)NC(=O)[C@H](NC(=O)[C@H](NC(=O)[C@H](CCCN)NC(=O)[C@H]2CCCN2C(=O)[C@H](NC(=O)[C@@H](NC(=O)[C@@H](NC(=O)[C@H](NC(=O)CCCC(C)C)C(C)C)[C@@H](C)O)C(C)C)C(C)C)[C@@H](C)CC)[C@@H](C)OC(=O)[C@H](C(C)C)NC1=O", "note": "[Kahalalide F]", "values": [
      {"measurement": "in vitro activity", "setting": "[1]", "value": "micromolar activity"},
      {"measurement": "in vitro activity", "setting": "colon (HT-29)", "value": "micromolar activity"},
      {"measurement": "in vitro activity", "setting": "mouse leukemia (P388)", "value": "micromolar activity"}
    ]},
    {"smiles": "C/C=C1\\NC(=O)[C@H](Cc2ccccc2)NC(=O)[C@@H](C(C)C)NC(=O)[C@@H]([C@@H](C)CC)NC(=O)[C@H](NC(=O)[C@H](NC(=O)[C@H](CCCN)NC(=O)[C@H]2CCCN2C(=O)[C@H](NC(=O)[C@@H](NC(=O)[C@@H](NC(=O)[C@@H](CS)NC(=O)CCCC(C)C)[C@@H](C)O)C(C)C)C(C)C)[C@@H](C)CC)[C@@H](C)OC(=O)[C@H](C(C)C)NC1=O", "note": "[P1]", "values": [
      {"measurement": "inhibition (cytotoxicity against HeLa cells)", "setting": "[2]", "value": 50, "unit": "%"}
    ]},
    {"smiles": "C/C=C1\\NC(=O)[C@H](Cc2ccccc2)NC(=O)[C@@H](C(C)C)NC(=O)[C@@H]([C@@H](C)CC)NC(=O)[C@H](NC(=O)[C@H](NC(=O)[C@H](CCCN)NC(=O)[C@H]2CCCN2C(=O)[C@H](NC(=O)[C@@H](NC(=O)[C@@H](NC(=O)[C@H](CS)NC(=O)CCCC(C)C)[C@@H](C)O)C(C)C)C(C)C)[C@@H](C)CC)[C@@H](C)OC(=O)[C@H](C(C)C)NC1=O", "note": "[P2]", "values": [
      {"measurement": "inhibition (cytotoxicity against HeLa cells)", "setting": "[2]", "value": 10, "unit": "%"}
    ]},
    {"smiles": "C/C=C1\\NC(=O)[C@H](Cc2ccccc2)NC(=O)[C@@H](C(C)C)NC(=O)[C@@H]([C@@H](C)CC)NC(=O)[C@H](NC(=O)[C@H](NC(=O)[C@H](CCCN)NC(=O)[C@H]2CCCN2C(=O)[C@H](NC(=O)[C@@H](NC(=O)[C@@H](NC(=O)[C@H](NC(=O)CC[C@@H](C)CC)C(C)C)[C@@H](C)O)C(C)C)C(C)C)[C@@H](C)CC)[C@@H](C)OC(=O)[C@H](C(C)C)NC1=O", "note": "[PMO2734]", "values": [
      {"measurement": "in vivo activity", "setting": "[3]", "value": "significant in vivo activity"}
    ]}
  ]
}
